Assay results from PubChem BioAssay (NCI).
Values joined by “and” are separate entries in the source; they are usually repeats but may differ in a detail not shown here. Identical values can stand only once.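 Assay format: 96-well plates, 48-hour exposure. GI50 is the concentration that inhibits growth by half. At the TGI there is no net growth.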

Experiments:
Test in all cases: inhibition of tumour cell growth, NCI panel, 48 h
A549 NSCLC = tested on: A549 NSCLC
SK-OV-3 ovarian = tested on: SK-OV-3 ovarian
OVCAR-5 ovarian = tested on: OVCAR-5 ovarian
SF-268 CNS = tested on: SF-268 CNS
SNB-75 CNS = tested on: SNB-75 CNS
MCF7 breast = tested on: MCF7 breast
DU-145 prostate = tested on: DU-145 prostate
SN12C renal = tested on: SN12C renal
NCI-H23 lung = tested on: NCI-H23 lung
MALME-3M melanoma = tested on: MALME-3M melanoma

Structure (SMILES) | TGI (A549 NSCLC) | TGI (SK-OV-3 ovarian) | TGI (OVCAR-5 ovarian) [µM] | TGI (SF-268 CNS) [µM] | TGI (SNB-75 CNS) [µM] | TGI (MCF7 breast) [µM] | TGI (DU-145 prostate) [µM] | TGI (SN12C renal) | TGI (NCI-H23 lung) [µM] | TGI (MALME-3M melanoma) [µM] | GI50 (A549 NSCLC) | GI50 (SK-OV-3 ovarian) | GI50 (NCI-H23 lung) | GI50 (OVCAR-5 ovarian) | GI50 (SF-268 CNS) [µM] | GI50 (SNB-75 CNS) | GI50 (SN12C renal) [µM]
CC12OC3(C(O)C1O)C(C(=O)O[C@H]3CO[Si](C)(C)C(C)(C)C)C2S(=O)(=O)c1ccccc1 (some centres undefined) | > 100 µM | > 100 µM | > 100 | > 100 | 90.4 | > 100 | > 100 | > 100 µM | – | – | – | – | – | – | – | – | –
CC(=O)O[C@@H]1[C@@H](C)[C@]2(CC(c3ccoc3)OC2O)C2CCC3O[C@]3(C)[C@]2(C)[C@@H]1OC(C)=O (some centres undefined) | > 100 µM | > 100 µM | > 100 | > 100 | > 100 | > 100 | > 100 | > 100 µM | > 100 | – | – | – | – | – | – | – | –
c1csc(-c2sc(-c3ccsc3)cc2Cc2ccsc2)c1 | > 10 µM | > 10 µM | – | > 10 | > 10 | > 10 | > 10 | > 10 µM | > 10 | > 10 | – | – | – | – | – | – | –
COc1cccc2c1C(=O)c1c(O)c3c(c(O)c1C2=O)C[C@@](O)(C(C)=O)C[C@@H]3OC1CC(N(C)C)C(O)C(C)O1 (some centres undefined) | 0.423 µM and 1.65 µM | 3.17 µM and 3.85 µM | – | – | – | 0.405 | 0.00739 | 2.15 µM and 1.01 µM | – | – | 0.0816 µM and 0.035 µM | 0.144 µM and 0.115 µM | 0.0394 µM and < 0.0142 µM | 0.0266 µM and 0.0147 µM | < 0.0191 | 0.138 µM and 0.0219 µM | 0.0164
O=C(/C=C/c1cc(F)ccc1F)OCCc1ccccc1 | > 100 µM | – | > 100 | > 100 | > 100 | > 100 | – | – | > 100 | > 100 | – | – | – | – | – | – | –
C=CC(Br)(CBr)CCC(Br)C(C)(C)Br (centres undefined) | 29.8 µM | 35.7 µM | 33.2 | 32.3 | 22.3 | – | – | 29.7 µM | 30.3 | 30.4 | – | – | – | – | – | – | –
CCOC(=O)c1ncn2c1[nH]c(=O)c1ccccc12 | > 100 µM | – | > 100 | > 100 | > 100 | – | – | > 100 µM | > 100 | > 100 | – | – | – | – | – | – | –
COc1ccc(N2C(=O)C(C#N)=C(SC)C(C#N)C2=O)cc1 (centres undefined) | > 100 µM | > 100 µM | > 100 | > 100 | > 100 | > 100 | – | > 100 µM | – | > 100 | – | – | – | – | – | – | –
N#Cc1nc(-c2ccccc2O)oc1N | > 100 µM | > 100 µM | > 100 | > 100 | – | > 100 | > 100 | > 100 µM | – | – | – | – | – | – | – | – | –
Cc1ccc([S+](c2ccccc2)c2cc(C)ccc2C)cc1 (centres undefined) | > 100 µM | – | – | > 100 | 2.9 | – | – | 46.3 µM | – | > 100 | – | – | – | – | – | – | –
COc1ccc(C(=O)/C=C/c2ccc(OCC#N)cc2)cc1OC | > 100 µM | > 100 µM | – | 85.3 | 22.9 | 16 | 23.8 | 32.3 µM | 54.5 | 38.8 | – | – | – | – | – | – | –
O=CNNC(=O)CSc1nc2ccc(I)cc2c(=O)n1Cc1ccccc1 | > 100 µM | > 100 µM | > 100 | > 100 | > 100 | > 100 | > 100 | 79.8 µM | 89.6 | – | – | – | – | – | – | – | –
c1ccc(N=C2C(=Nc3ccccc3)N(C3CCCCC3)C(=NC3CCCCC3)N2c2ccccc2)cc1 | > 100 µM | – | > 100 | – | > 100 | > 100 | – | – | > 100 | > 100 | – | – | – | – | – | – | –
